Measured values: patent US6369299B1 (Regents of the University of Minnesota, priority 1999, dated 2002)

Experiments:
[1] = system: Medicago sativa cv. Regen SY; test: atrazine tolerance: rooting and growth of sterile cuttings on sugar-free, hormone-free B5h medium; format: in vivo; details: untransformed control (SY) plant cuttings, Magenta boxes
Excerpt: Under these conditions plant growth depends on photosynthesis for production of energy and carbon.

[2] = system: quinone-binding (QB) protein; details: altered QB protein of atrazine resistant weeds; cited from earlier work
[3] = system: plants; details: cited from earlier work

| SMILES | atrazine concentration at which cuttings did not root or grow [1] | reduced affinity of altered QB protein for atrazine [2] | herbicidal activity [3] |
| --- | --- | --- | --- |
| CCNc1nc(Cl)nc(NC(C)C)n1 [atrazine, 2-chloro-4-ethylamino-6-isopropylamino-1,3,5-s-triazine] | ≥ 500 nM | 1000 fold | – |
| CCNc1nc(NC(C)C)[nH]c(=O)n1 [hydroxyatrazine] | – | – | no herbicidal activity |
